# Source: patent publication US8119674B2, “4-phenylimidazole-2-thione tyrosinase inhibitors and pharmaceutical/cosmetic applications thereof” (Galderma Research & Development, priority 2007, dated 2012)
# Biological target: T1, tyrosinase (Mus musculus, UniProt P11344)
# T1 construct: the supernatant obtained constitutes the cell lysate used as tyrosinase source in the enzymatic assay; endogenous in cells; host or cells: B16F1 murine melanoma cells, cultured with alpha-MSH; detergent/ultrasound lysate supernatant
# T1 sequence (P11344 19-533): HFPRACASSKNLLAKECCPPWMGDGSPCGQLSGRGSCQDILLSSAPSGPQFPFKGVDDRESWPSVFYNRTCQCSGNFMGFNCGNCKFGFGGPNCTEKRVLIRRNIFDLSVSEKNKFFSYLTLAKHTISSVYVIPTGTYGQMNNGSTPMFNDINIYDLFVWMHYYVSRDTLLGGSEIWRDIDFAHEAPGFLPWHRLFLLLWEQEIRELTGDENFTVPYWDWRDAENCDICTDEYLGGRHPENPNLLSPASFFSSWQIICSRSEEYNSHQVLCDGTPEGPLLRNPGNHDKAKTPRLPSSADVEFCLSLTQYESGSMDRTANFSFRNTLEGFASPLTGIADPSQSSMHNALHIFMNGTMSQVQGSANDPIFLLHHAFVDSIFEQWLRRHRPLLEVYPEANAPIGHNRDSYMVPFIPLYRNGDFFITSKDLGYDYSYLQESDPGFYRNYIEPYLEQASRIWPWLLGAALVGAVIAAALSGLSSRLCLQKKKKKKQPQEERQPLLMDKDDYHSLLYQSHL
# Assay: Tyrosinase activity inhibition assay (B16F1 cell lysate, L-tyrosine substrate, MBTH, absorbance at 520 nm)
# Type: biochemical
# Conditions: lysate of B16F1 cells (murine melanoma line) as tyrosinase source; 37° C., reading at 520 nm after 6 hours; read-out: Tyrosine hydroxylase/Dopa oxidase IC50
# Protocol: The activity of the inhibitors is measured starting from a lysate of B16F1 cells (murine melanoma line). In the presence of the L-tyrosine substrate, the tyrosinase present in these cells catalyses the hydroxylation of L-tyrosine to give L-DOPA and then the oxidation of the L-DOPA to give dopaquinone. In the presence of MBTH (3-methyl-2-benzothiazolinone hydrazone), the dopaquinone is trapped so as to form a pink complex which absorbs at 520 nm.
# The B16F1 cells are cultured in DMEM medium+10% foetal calf serum+10^−9 M α-MSH for 4 days at 37° C. under 7% CO2. They are treated with trypsin, washed with PBS, counted and pelleted. The pellet is taken up at 10^7 cells/ml in lysis buffer (10 mM sodium phosphate, pH 6.8-1% Igepal) and the suspension is treated with ultrasound for 10 seconds. After centrifugation for 30 minutes at 4000 rpm, the supernatant obtained constitutes the cell lysate used as tyrosinase source in the enzymatic assay.
# The assays are carried out in duplicate in 384-well plates in a total volume of 50 μl. Each well contains:
# 40 μl of solution containing 1.25 mM L-tyrosine, 6.25 μM L-DOPA (cofactor) and 3.75 mM MBTH in buffer B (62.25 mM sodium phosphate, pH 6.8-2.5% dimethylformamide),
# 5 μl of inhibitor diluted in DMSO,
# 5 μl of cell lysate diluted to ½ in 50 mM Tris HCl buffer, pH 7.5.
# The plate is incubated at 37° C. and a spectrophotometric reading is carried out at 520 nm after incubating for 6 hours. To avoid any possible absorption of the products, the system uses corrected absorbance (absorbance at time 6 h−absorbance at time zero).
# The inhibitors are assayed in terms of dose-response so as to calculate an IC50 (dose which inhibits 50% of the enzymatic activity).
# Several internal controls are added to each experiment:
# control for 100% activity: the 5 μl of inhibitor are replaced with 5 μl of DMSO,
# control for 50% activity: the 5 μl of inhibitor are replaced with 5 μl of phenylthiourea at 300 μM in DMSO,
# control for 0% activity: the L-tyrosine substrate is replaced with buffer B.
row,IC50 [nM],Compound
1,200,"O=C(O)c1ccc(-c2c[nH]c(=S)[nH]2)cc1 [Compound 3, 4-(4-Carboxyphenyl)-1,3-dihydroimidazole-2-thione]"
2,300,"OCc1ccc(-c2c[nH]c(=S)[nH]2)cc1 [Compound 7, 4-(4-(Hydroxymethyl)phenyl)-1,3-dihydroimidazole-2-thione]"
3,400,"FC(F)Oc1ccc(-c2c[nH]c(=S)[nH]2)cc1 [Compound 9, 4-(4-(Difluoromethoxy)phenyl)-1,3-dihydroimidazole-2-thione]"
4,1400,"COc1cccc(-c2c[nH]c(=S)[nH]2)c1 [Compound 11, 4-(3-Methoxyphenyl)-1,3-dihydroimidazole-2-thione]"
